# Measurements as given in patent US20250049869A1, “USE OF AURICULARIA AURICULA TOTAL POLYSACCHARIDE OR MONOMERIC POLYSACCHARIDE IN PREPARATION OF PD-L1 INHIBITOR” (priority 2023, published 2025).
# Entries after “also recorded” stand apart in the source; their conditions may differ.
# How the values were obtained:
# PD-L1 protein = PD-L1 protein (Homo sapiens, UniProt Q9NZQ7); assay: SPR affinity analysis with PD-L1 protein (Biacore 8K, CM5 chip); format: binding
# Experimental: Biacore 8K high-throughput molecular interaction analysis system, CM5 chip, and phosphate buffered saline (PBS) buffer as the mobile phase of the instrument were used in the whole process of the surface plasmon resonance experiment. The PD-L1 was coupled to the activated CM5 chip using an amino coupling kit. […] After 60 s of dissociation, the chip was regenerated with 10 mM glycine-HCl (pH2.0) and 3 M NaCl at a flow rate of 30 L/min for 30 s. Biacore Evaluation 3.1 software and GraphPad Prism 8.0 software were used to analyze the data and obtain the response curve.
# PD-1 protein = PD-1 protein (Homo sapiens, UniProt Q15116); assay: SPR affinity analysis with PD-1 protein; format: binding
# Sequence of PD-1 protein (Q15116 25-288): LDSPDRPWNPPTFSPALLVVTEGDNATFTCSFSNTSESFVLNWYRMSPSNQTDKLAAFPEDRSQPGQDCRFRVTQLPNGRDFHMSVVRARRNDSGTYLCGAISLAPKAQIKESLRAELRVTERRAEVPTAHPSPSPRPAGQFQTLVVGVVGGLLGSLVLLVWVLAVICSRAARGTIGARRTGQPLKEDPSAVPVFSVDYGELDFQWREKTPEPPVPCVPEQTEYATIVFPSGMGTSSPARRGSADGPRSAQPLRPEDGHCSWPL
# PD-L1 and PD-1 protein = PD-L1 and PD-1 protein (Homo sapiens, UniProt Q9NZQ7); assay: SPR competitive experiment between ME-2 and PD-1 for PD-L1; format: binding
# Sequence of PD-L1 and PD-1 protein (Q9NZQ7 19-238 limits assumed, species assumed): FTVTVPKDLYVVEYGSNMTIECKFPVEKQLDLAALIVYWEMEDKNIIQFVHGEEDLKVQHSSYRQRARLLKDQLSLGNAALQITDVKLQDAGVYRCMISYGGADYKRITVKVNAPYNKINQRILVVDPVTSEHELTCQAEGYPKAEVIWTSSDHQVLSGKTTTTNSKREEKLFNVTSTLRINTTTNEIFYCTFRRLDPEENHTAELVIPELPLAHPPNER
# Text: Biacore 8K high-throughput molecular interaction analysis system, CM5 chip, and phosphate buffered saline (PBS) buffer as the mobile phase of the instrument were used in the whole process of the surface plasmon resonance experiment. The PD-L1 was coupled to the activated CM5 chip using an amino coupling kit. […] The ME-2 polysaccharide solution with different concentrations was passed through the coupling channel and the blank channel at a certain velocity by using the running buffer. After 60 s of dissociation, the chip was regenerated with 10 mM glycine-HCl (pH2.0) and 3 M NaCl at a flow rate of […] for 30 s. Biacore Evaluation 3.1 software and GraphPad Prism 8.0 software were used to analyze the data and obtain the response curve.
# NCI-H157 cells [1] = assay: CCK8 in vitro cytotoxicity assay, NCI-H157; format: cell-based; settings: CCK8, gradient concentration, 24 h
# Experimental: (§1) CCK8 was used to detect the cytotoxicity of ME-2 to NCI-H157 and LLC cells. H157 or LLC cells were inoculated overnight in 96-well cell culture plate at a concentration of 1×10^4/mL. The gradient concentration of ME-2 was prepared in the medium, and CCK8 solution was added into the 96-well cell culture plate after 24 h of action. OD values were measured at 450 nm by an enzyme-linked immunosorbent assay (ELISA) instrument.
# LLC cells = assay: CCK8 in vitro cytotoxicity assay, LLC; format: cell-based, mouse; settings: CCK8, gradient concentration, 24 h
# Experimental: as §1
# PD-L1 [2] = assay: Western blot of PD-L1 expression in tumor cells with high expression of PD-L1 (NCI-H157, U2OS, SW620); format: cell-based, human; settings: concentration and time gradient, most significant at 2 mg/mL, 24 h
# Experimental: (§2) The tumor cells in question were non-small cell lung cancer NCI-H157, mouse lung cancer LLC, colon cancer SW620, human osteosarcoma U2OS, non-small cell lung cancer A549, liver cancer HepG-2, and breast cancer MCF-7. The total protein of the above cells was extracted; the protein concentration was determined by bicinchoninic acid (BCA) assay. The samples were loaded and subjected to sodium dodecyl sulfate (SDS) polyacrylamide gel electrophoresis (SDS-PAGE); the membrane was blocked and immunoreacted after transfer, and an enhanced chemiluminescence (ECL) solution was used for development. Picture processing and gray value analysis were performed on the exposure results on ImageJ software. According to the experimental results, the cell lines with high expression of PD-L1 were selected as follows: NCI-H157, LLC, U2OS, and SW620; and the cell lines with low or no expression of PD-L1 were A549, HepG-2, and MCF-7 (see FIGS. 3A and 3B).
# (§3) Concentration and time gradient ME-2 were applied to act on four tumor cell lines with high expression of PD-L1, respectively. The Western blot method was used for detection, and the experimental method was shown above. […] The downregulation of tumor cell baseline PD-L1 was concentration dependent (see FIG. 5A) and time dependent (see FIG. 5B). The downregulation of PD-L1 was most significant when the dose concentration was 2 mg/mL and the administration time was 24 h.
# A Western blot was used to detect the effects of Auricularia auricula total polysaccharide METP and Auricularia auricula deacetylated monomeric polysaccharide dME-2 on the expression of PD-L1 in H157 cells, and Auricularia auricula monomeric polysaccharide ME-2 was used as a positive control. The experimental procedure was described in Example 1.
# PD-L1 [3] = assay: Western blot of PD-L1 expression in mouse lung cancer LLC cells; format: cell-based; settings: concentration and time gradient, most significant at 2 mg/mL, 24 h
# Experimental: as §2
# as §3, with “The downregulation of PD-L1 was most significant when the dose concentration was 2 mg/mL and the administration time was 24 h.” left out
# PD-L1 [4] = assay: Western blot of IFN-γ-induced PD-L1 expression (A549, HepG-2, MCF-7); format: cell-based; settings: ME-2 and IFN-γ co-acted on cells
# Experimental: as §2
# Interferon IFN-γ is an important factor in inducing PD-L1 expression in the tumor immune microenvironment. We used low-expression PD-L1 tumor cells (non-small cell lung cancer A549, liver cancer HepG-2, and breast cancer MCF-7). ME-2 and IFN-γ were co-acted on cells; their expression abundance was detected by the Western blot method, and the experimental method was shown above.
# PD-L1 [5] = assay: Flow cytometry of PD-L1 expression in NCI-H157 cells; format: cell-based; settings: flow cytometry, 1, 2 and 5 mg/mL
# Experimental: (§4) NCI-H157 or LLC cells in a 6-well plate were treated with low, medium, and high doses of ME-2 at 1, 2, and 5 mg/mL, respectively, for corresponding time, and the cells were stained with a fluorescent antibody. Fluorescence intensity was measured by flow cytometry.
# PD-L1 [6] = assay: Flow cytometry of PD-L1 expression in LLC cells; format: cell-based, mouse; settings: flow cytometry, 1, 2 and 5 mg/mL
# Experimental: as §4
# PD-L1/PD-1 interaction = target: T1, PD-L1/PD-1 interaction (Homo sapiens, UniProt Q9NZQ7); assay: PD-1Fc binding to PD-L1 on NCI-H157 cells (flow cytometry and confocal); format: cell-based; settings: 24 h of ME-2 treatment, human recombinant PD-1Fc, dose-dependent
# T1 construct: NCI-H157 cells were inoculated on a 24-well cell culture plate; endogenous in cells; host or cells: NCI-H157
# T1 sequence (Q9NZQ7 19-290): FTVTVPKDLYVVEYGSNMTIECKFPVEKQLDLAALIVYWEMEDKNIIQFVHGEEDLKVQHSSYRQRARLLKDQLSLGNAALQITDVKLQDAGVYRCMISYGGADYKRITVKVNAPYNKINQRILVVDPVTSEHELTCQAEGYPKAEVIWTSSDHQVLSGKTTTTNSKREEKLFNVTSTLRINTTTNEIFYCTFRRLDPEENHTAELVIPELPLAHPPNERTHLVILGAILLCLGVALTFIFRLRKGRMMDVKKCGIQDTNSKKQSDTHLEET
# Experimental: NCI-H157 cells were inoculated on a 24-well cell culture plate and subjected to gradient dosing treatment for time needed after cell adhesion. The cells were fixed at room temperature with a 4% solution of paraformaldehyde. The cells were washed with PBS buffer several times. An appropriate amount of human recombinant PD-1Fc protein was added to the fixed cells and incubated for 1 h, and the cells were washed with PBS buffer several times. Anti-human IgG (Alexa Fluor 488) fluorescent secondary antibody was added and incubated for 30 min. After nuclear staining, a glycerol sealing layer was applied. Green fluorescence signals were observed under a fluorescence microscope and photographed for statistics, or the fluorescence intensity was measured by flow cytometry.
# NCI-H157 cells [7] = assay: Co-culture of H157 tumor cells with stimulated Jurkat T cells, crystal violet staining; format: cell-based; settings: gradient dosing, co-culture 24 h
# Experimental: In order to further evaluate the anti-tumor effect of ME-2 in the experiment of co-culture of tumor cells and T cells, H157 cells were inoculated into a 24-well culture plate, subjected to gradient dosing treatment for time needed, and co-cultured with stimulated Jurkat T cells for 24 h. The tumor survival was observed under a microscope after 4% polyformaldehyde fixation and crystal violet staining. The specific manifestation was the difference in the depth of staining in the different dosages and concentrations of ME-2.
# [8] = system: LLC lung cancer transplanted tumor; assay: Mouse lung cancer (LLC) transplanted tumor model
# Sequence of PD-L1 protein (Q9NZQ7 19-290, species assumed): as the sequence (Q9NZQ7 19-290) above
substance,measurement,setting,value
high-acetyl glucuronoxylogalactoglucomannan [ME-2],affinity to PD-L1 protein (in words),PD-L1 protein,strong affinity
same,affinity to PD-1 protein (in words),PD-1 protein,no affinity
same,binding of PD-L1 and PD-1 protein with increasing concentration of ME-2,PD-L1 and PD-1 protein,significantly inhibited
same,cytotoxicity / proliferation of NCI-H157 cells,NCI-H157 cells [1],no obvious cytotoxicity
same,cytotoxicity / proliferation of LLC cells,LLC cells,no obvious cytotoxicity
same,abundance of PD-L1 in NCI-H157 cells,PD-L1 [2],significantly down-regulated
same,abundance of PD-L1 in SW620 cells,PD-L1 [2],significantly down-regulated
same,abundance of PD-L1 in U2OS cells,PD-L1 [2],significantly down-regulated
same,abundance of PD-L1 in LLC cells,PD-L1 [3],significantly down-regulated
same,IFN-γ-induced expression of PD-L1 in A549 cells,PD-L1 [4],significantly down-regulated
same,IFN-γ-induced expression of PD-L1 in HepG-2 cells,PD-L1 [4],significantly down-regulated
same,IFN-γ-induced expression of PD-L1 in MCF-7 cells,PD-L1 [4],significantly down-regulated
same,PD-L1 fluorescence intensity in NCI-H157 cells,PD-L1 [5],concentration dependent inhibition
same,PD-L1 fluorescence intensity in LLC cells,PD-L1 [6],concentration dependent inhibition
same,PD-1 binding to PD-L1 in NCI-H157 cells,PD-L1/PD-1 interaction,decreased
same,sensitivity of NCI-H157 cells to killing by Jurkat T cells,NCI-H157 cells [7],more sensitive to the killing of Jurkat T cells
same,HE staining of vital organs of mice,[8]; ME-2 100 mg/kg,did not cause organic changes
same,serum indexes of mice,[8]; ME-2 100 mg/kg,consistent with those of the control group
same,tumor growth in model mice,"[8]; ME-2 100 mg/kg, oral administration, 100 mg/kg",obvious better than a positive drug; also recorded: effectively inhibited
same,toxic and side effects on mice,[8]; ME-2 at the dosage used (100 mg/kg),no obvious toxic and side effects
same,body weight of mice,"[8]; ME-2 experiment, all groups",no significant difference
same,PD-L1 mRNA level in mouse tumors,"[8]; qPCR, ME-2 treated mice",significantly reduce
